System: Aedes aegypti larvae
Experiment: Aedes aegypti test
Format: in vivo
Conditions: 30 ppm; larvae treated
Protocol: (§1) An appropriate preparation of active compound is prepared by mixing the active compound with the stated amounts of solvent and diluting the concentrate with […] water to the desired concentration.
The Aedes aegypti larvae are treated with a preparation of active compound at the desired concentration.
After the desired time the effect in % is determined. 100% means that all of the Aedes aegypti have been killed; 0% means that no Aedes aegypti have been killed.

| SMILES | Kill level after 2-4 d in % [%] |
| --- | --- |
| Cc1cc(Br)cc(C(=O)NC(C)C)c1NC(=O)c1cc(Cn2cc(C(F)(F)C(F)(F)F)c(C(F)(F)C(F)(F)F)n2)nn1-c1ncccc1Cl [I-1-13] | 100 |
| Cc1cc(Cl)cc(C(=O)NC(C)C)c1NC(=O)c1cc(Cn2cc(I)c(C(F)(F)C(F)(F)F)n2)nn1-c1ncccc1Cl [I-1-14] | 100 |
| Cc1cc(Cl)cc(C(=O)NC(C)C)c1NC(=O)c1cc(Cn2cc(Cl)c(C(F)(F)F)n2)nn1-c1ncccc1Cl [I-1-15] | 100 |

System: larvae of the leafminer fly (Liriomyza trifolii)
Experiment: Liriomyza trifolii test
Format: in vivo
Conditions: 500 ppm; infested bean leaf discs sprayed
Protocol: (§2) An appropriate preparation of active compound is prepared by mixing 1 part by weight of active compound with the stated amounts of solvent and emulsifier and diluting the concentrate with emulsifier-containing water to the desired concentration.
Bean leaf discs (Phaseolus vulgaris) infested by larvae of the leafminer fly (Liriomyza trifolii) are sprayed with a preparation of active compound at the desired concentration.
After the desired time the effect in % is determined. 100% means that all of the leafminer flies have been killed; 0% means that no leafminer flies have been killed.

| SMILES | Kill level after 7 d in % [%] |
| --- | --- |
| CNC(=O)c1cc(Cl)cc(C)c1NC(=O)c1cc(Cn2cc(C(F)(F)C(F)(F)F)c(C(F)(F)C(F)(F)F)n2)nn1-c1ncccc1Cl [I-1-3] | 98 |
| CNC(=O)c1cc(Cl)cc(C)c1NC(=O)c1cc(Cn2cc(Cl)cn2)nn1-c1ncccc1Cl [I-1-4] | 95 |
| Cc1cc(Br)cc(C(=O)NC(C)C)c1NC(=O)c1cc(Cn2nc(C(F)(F)F)nc2C(F)(F)F)nn1-c1ncccc1Cl [I-1-22] | 98 |

System: Myzus persicae
Experiment: Myzus persicae test
Format: in vivo
Conditions: 30 ppm; preparation provided for consumption
Protocol: as §1
The Myzus persicae is provided with a preparation of active compound at the desired concentration for consumption.
After the desired time the effect in % is determined. 100% means that all of the aphids have been killed; 0% means that no aphids have been killed.

| SMILES | Kill level after 6-7 d in % [%] |
| --- | --- |
| Cc1cc(Br)cc(C(=O)NC(C)C)c1NC(=O)c1cc(Cn2cc(C(F)(F)C(F)(F)F)c(C(F)(F)C(F)(F)F)n2)nn1-c1ncccc1Cl [I-1-13] | 100 |
| Cc1cc(Cl)cc(C(=O)NC(C)C)c1NC(=O)c1cc(Cn2cc(I)c(C(F)(F)C(F)(F)F)n2)nn1-c1ncccc1Cl [I-1-14] | 100 |
| Cc1cc(Cl)cc(C(=O)NC(C)C)c1NC(=O)c1cc(Cn2cc(Cl)c(C(F)(F)F)n2)nn1-c1ncccc1Cl [I-1-15] | 100 |

System: caterpillars of the armyworm (Spodoptera frugiperda)
Experiment: Spodoptera frugiperda test (cabbage leaves, immersion)
Format: in vivo
Conditions: 0.8 g/ha; cabbage leaves immersed
Protocol: as §2
Cabbage leaves (Brassica oleracea) are treated by immersion into a preparation of active compound at the desired concentration and, are populated with caterpillars of the armyworm (Spodoptera frugiperda) while the leaves are still wet.
After the desired time the effect in % is determined. 100% means that all of the caterpillars have been killed; 0% means that no caterpillars have been killed.
Cabbage leaves (Brassica oleracea) are treated by immersion into a preparation of active compound at the desired concentration and are populated with caterpillars of the armyworm (Spodoptera frugiperda) while the leaves are still wet.

| SMILES | Kill level after 7 d in % [%] |
| --- | --- |
| CNC(=O)c1cc(Cl)cc(C)c1NC(=O)c1cc(Cn2cc(C(F)(F)C(F)(F)F)c(C(F)(F)C(F)(F)F)n2)nn1-c1ncccc1Cl [I-1-3] | 100 |

Same assay, conditions: 4 g/ha; cabbage leaves immersed

| SMILES | Kill level after 7 d in % [%] |
| --- | --- |
| Cc1cc(Br)cc(C(=O)NC(C)C)c1NC(=O)c1cc(Cn2nc(C(F)(F)F)nc2C(F)(F)F)nn1-c1ncccc1Cl [I-1-22] | 100 |

Same assay, conditions: 20 g/ha; cabbage leaves immersed

| SMILES | Kill level after 7 d in % [%] |
| --- | --- |
| CNC(=O)c1cc(Cl)cc(C)c1NC(=O)c1cc(Cn2nc(C(F)(F)C(F)(F)F)cc2C(F)(F)C(F)(F)F)nn1-c1ncccc1Cl [I-1-27] | 83 |

Same assay, conditions: 100 g/ha; cabbage leaves immersed

| SMILES | Kill level after 7 d in % [%] |
| --- | --- |
| CNC(=O)c1cc(Cl)cc(C)c1NC(=O)c1cc(Cn2cc(C(F)(F)C(F)(F)F)c(C(F)(F)C(F)(F)F)n2)nn1-c1ncccc1Cl [I-1-3] | 100 |
| CNC(=O)c1cc(Cl)cc(C)c1NC(=O)c1cc(Cn2cc(Cl)cn2)nn1-c1ncccc1Cl [I-1-4] | 100 |
| Cc1cc(Cl)cc(C(=O)NC(C)C)c1NC(=O)c1cc(Cn2cccn2)nn1-c1ncccc1Cl [I-1-9] | 100 |
| Cc1cc(Cl)cc(C(=O)NC(C)C)c1NC(=O)c1cc(Cn2nc(C(F)(F)F)cc2C(F)(F)F)nn1-c1ccccc1Cl [I-1-10] | 100 |
| CNC(=O)c1cc(Cl)cc(C)c1NC(=O)c1cc(Cn2nc(C(F)(F)F)cc2C(F)(F)F)nn1-c1ccccc1Cl [I-1-11] | 100 |
| Cc1cc(Cl)cc(C(=O)NC(C)C)c1NC(=O)c1cc(Cn2cc(C(F)(F)C(F)(F)F)c(C(F)(F)C(F)(F)F)n2)nn1-c1ncccc1Cl [I-1-12] | 100 |
| Cc1cc(Br)cc(C(=O)NC(C)C)c1NC(=O)c1cc(Cn2cc(C(F)(F)C(F)(F)F)c(C(F)(F)C(F)(F)F)n2)nn1-c1ncccc1Cl [I-1-13] | 100 |
| Cc1cc(Cl)cc(C(=O)NC(C)C)c1NC(=O)c1cc(Cn2cc(I)c(C(F)(F)C(F)(F)F)n2)nn1-c1ncccc1Cl [I-1-14] | 100 |
| Cc1cc(Cl)cc(C(=O)NC(C)C)c1NC(=O)c1cc(Cn2cc(Cl)c(C(F)(F)F)n2)nn1-c1ncccc1Cl [I-1-15] | 100 |
| CNC(=O)c1cc(Cl)cc(C)c1NC(=O)c1cc(Cn2cc(I)c(C(F)(F)C(F)(F)F)n2)nn1-c1ncccc1Cl [I-1-16] | 100 |
| CNC(=O)c1cc(Cl)cc(C)c1NC(=O)c1cc(Cn2cc(Cl)c(C(F)(F)F)n2)nn1-c1ncccc1Cl [I-1-17] | 100 |
| Cc1cc(Cl)cc(C(=O)NC(C)C)c1NC(=O)c1cc(Cn2ccc(C(F)(F)C(F)(F)F)n2)nn1-c1ncccc1Cl [I-1-18] | 100 |
| CNC(=O)c1cc(Cl)cc(C)c1NC(=O)c1cc(Cn2ccc(C(F)(F)C(F)(F)F)n2)nn1-c1ncccc1Cl [I-1-19] | 100 |
| Cc1cc(Br)cc(C(=O)NC(C)C)c1NC(=O)c1cc(Cn2nc(C(F)(F)F)cc2C(F)(F)F)nn1-c1ncccc1Cl [I-1-20] | 100 |
| Cc1cc(Br)cc(C(=O)NC(C)C)c1NC(=O)c1cc(Cn2nc(C(F)(F)F)nc2C(F)(F)F)nn1-c1ncccc1Cl [I-1-22] | 100 |

System: Diabrotica undecimpunctata eggs
Experiment: Diabrotica undecimpunctata test
Format: in vivo
Conditions: 300 ppm; eggs treated
Protocol: as §1
The Diabrotica undecimpunctata eggs are treated with a preparation of active compound at the desired concentration.
(§3) After the desired time the effect in % is determined. 100% means that all of the eggs/larvae have been killed; 0% means that no eggs/larvae have been killed.

| SMILES | Kill level after 2-5 d in % [%] |
| --- | --- |
| Cc1cc(Br)cc(C(=O)NC(C)C)c1NC(=O)c1cc(Cn2cc(C(F)(F)C(F)(F)F)c(C(F)(F)C(F)(F)F)n2)nn1-c1ncccc1Cl [I-1-13] | 100 |
| Cc1cc(Cl)cc(C(=O)NC(C)C)c1NC(=O)c1cc(Cn2cc(I)c(C(F)(F)C(F)(F)F)n2)nn1-c1ncccc1Cl [I-1-14] | 100 |
| Cc1cc(Cl)cc(C(=O)NC(C)C)c1NC(=O)c1cc(Cn2cc(Cl)c(C(F)(F)F)n2)nn1-c1ncccc1Cl [I-1-15] | 100 |

System: Heliothis virescens eggs
Experiment: Heliothis virescens test
Format: in vivo
Conditions: 300 ppm; eggs treated
Protocol: as §1
The Heliothis virescens eggs are treated with a preparation of active compound at the desired concentration.
as §3

| SMILES | Kill level after 6-7 d in % [%] |
| --- | --- |
| Cc1cc(Br)cc(C(=O)NC(C)C)c1NC(=O)c1cc(Cn2cc(C(F)(F)C(F)(F)F)c(C(F)(F)C(F)(F)F)n2)nn1-c1ncccc1Cl [I-1-13] | 100 |
| Cc1cc(Cl)cc(C(=O)NC(C)C)c1NC(=O)c1cc(Cn2cc(I)c(C(F)(F)C(F)(F)F)n2)nn1-c1ncccc1Cl [I-1-14] | 100 |
| Cc1cc(Cl)cc(C(=O)NC(C)C)c1NC(=O)c1cc(Cn2cc(Cl)c(C(F)(F)F)n2)nn1-c1ncccc1Cl [I-1-15] | 100 |

System: not listed separately
Experiment: log P determination by HPLC on reverse-phase column (EEC Directive 79/831 Annex V.A8)
Format: physicochemical
Conditions: HPLC on reverse-phase column
In short: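 Log P was derived from retention times by linear interpolation between successive unbranched alkan-2-one standards (C3–C16). The standards and samples ran on a C18 reverse-phase column at 43 °C with a 10→95% acetonitrile gradient in 0.1% formic acid (pH 2.7). The method follows EEC Directive 79/831 Annex V.A8.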

| SMILES | logP |
| --- | --- |
| CNC(=O)c1cc(Cl)cc(C)c1NC(=O)c1cc(Cn2cc(C(F)(F)C(F)(F)F)c(C(F)(F)C(F)(F)F)n2)nn1-c1ncccc1Cl [I-1-3] | 4.39 |
| CNC(=O)c1cc(Cl)cc(C)c1NC(=O)c1cc(Cn2cc(Cl)cn2)nn1-c1ncccc1Cl [I-1-4] | 2.54 |
| Cc1cc(Cl)cc(C(=O)NC(C)C)c1NC(=O)c1cc(Cn2cccn2)nn1-c1ncccc1Cl [I-1-9] | 2.45 |
| Cc1cc(Cl)cc(C(=O)NC(C)C)c1NC(=O)c1cc(Cn2nc(C(F)(F)F)cc2C(F)(F)F)nn1-c1ccccc1Cl [I-1-10] | 4.70 |
| CNC(=O)c1cc(Cl)cc(C)c1NC(=O)c1cc(Cn2nc(C(F)(F)F)cc2C(F)(F)F)nn1-c1ccccc1Cl [I-1-11] | 4.12 |
| Cc1cc(Cl)cc(C(=O)NC(C)C)c1NC(=O)c1cc(Cn2cc(C(F)(F)C(F)(F)F)c(C(F)(F)C(F)(F)F)n2)nn1-c1ncccc1Cl [I-1-12] | 4.89 |
| Cc1cc(Br)cc(C(=O)NC(C)C)c1NC(=O)c1cc(Cn2cc(C(F)(F)C(F)(F)F)c(C(F)(F)C(F)(F)F)n2)nn1-c1ncccc1Cl [I-1-13] | 4.98 |
| Cc1cc(Cl)cc(C(=O)NC(C)C)c1NC(=O)c1cc(Cn2cc(I)c(C(F)(F)C(F)(F)F)n2)nn1-c1ncccc1Cl [I-1-14] | 4.29 |
| Cc1cc(Cl)cc(C(=O)NC(C)C)c1NC(=O)c1cc(Cn2cc(Cl)c(C(F)(F)F)n2)nn1-c1ncccc1Cl [I-1-15] | 3.85 |
| CNC(=O)c1cc(Cl)cc(C)c1NC(=O)c1cc(Cn2cc(I)c(C(F)(F)C(F)(F)F)n2)nn1-c1ncccc1Cl [I-1-16] | 3.79 |
| CNC(=O)c1cc(Cl)cc(C)c1NC(=O)c1cc(Cn2cc(Cl)c(C(F)(F)F)n2)nn1-c1ncccc1Cl [I-1-17] | 3.35 |
| Cc1cc(Cl)cc(C(=O)NC(C)C)c1NC(=O)c1cc(Cn2ccc(C(F)(F)C(F)(F)F)n2)nn1-c1ncccc1Cl [I-1-18] | 3.75 |
| CNC(=O)c1cc(Cl)cc(C)c1NC(=O)c1cc(Cn2ccc(C(F)(F)C(F)(F)F)n2)nn1-c1ncccc1Cl [I-1-19] | 3.29 |
| Cc1cc(Br)cc(C(=O)NC(C)C)c1NC(=O)c1cc(Cn2nc(C(F)(F)F)cc2C(F)(F)F)nn1-c1ncccc1Cl [I-1-20] | 4.16 |
| Cc1cc(Br)cc(C(=O)NC(C)C)c1NC(=O)c1cc(Cn2nc(C(F)(F)F)nc2C(F)(F)F)nn1-c1ncccc1Cl [I-1-22] | 3.91 |
| CNC(=O)c1cc(Cl)cc(C)c1NC(=O)c1cc(Cn2nc(C(F)(F)C(F)(F)F)cc2C(F)(F)C(F)(F)F)nn1-c1ncccc1Cl [I-1-27] | 4.45 |

Source: patent publication US8101550B2, “Anthranilic acid diamide derivative with hetero-aromatic and hetero-cyclic substituents” (Bayer Cropscience AG, priority 2006, dated 2012)
